From patent publication US20170226552A1, “METHODS FOR MODULATING PROTEIN GLY[…] OF R[…] THERAPEUTICS USING COBALT” (AbbVie Inc., priority 2014, published 2017)

Legend:
Format in all cases: cell-based, Chinese Hamster
[1] = tested on: Cell Line 1 (CHO cell line expressing Antibody 1); experiment: Cell Line 1 3 L laboratory-scale bioreactor culture: harvest titer of Antibody 1; settings: Cell Line 1, 3 L bioreactor, 50 μM CoCl2
Procedure: (§1) Two recombinant Chinese Hamster Ovary (CHO) cell lines expressing two different recombinant glycoproteins were evaluated in 2 different culture vessels (shaker flasks and 3 L laboratory scale bioreactors). Cell Line 1 expressed humanized Antibody 1, and Cell Line 2 expressed Dual Variable Domain Immunoglobulin 1 (DVD1). Antibody 1 was an IgG1 glycoprotein, and DVD1 was an immunoglobulin glycoprotein with two variable domains as documented previously (Wu C. et al., (2007) Nat Biotechnol 25(11):1290-7).
(§2) Both cells lines were of CHO DUX-B11 origin based on a dhfr (dihydrofolate reductase) expression system. […]
Antibody titers were measured from crude cell culture harvests on a Poros A™ (Life Technologies, Carlsbad, Calif.) affinity column using an HPLC system operating with a low pH, step elution gradient with detection at 280 nm. […]
3 L scale-down model bioreactors were utilized to verify the impact of CoCl2 on the resulting protein glycosylation profiles in Cell Line 1. Cell culture process performance indicators were monitored and measured throughout the respective cultures. Viable cell density, cell viability, harvest titer, and harvest N-glycan oligosaccharide data was measured and reported. […]

[2] = tested on: Cell Line 1 (CHO cell line expressing Antibody 1); experiment: Cell Line 1 3 L laboratory-scale bioreactor culture: N-glycan oligosaccharide profile of Antibody 1
Procedure: as §1, §2
(§3) Approximately 200 μg of Protein A purified samples from Cell Lines 1 and 2 were treated with N-glycanase at 37° C. for an overnight duration to remove the N-glycans from the protein. […] Following the derivatization step, the excess dye was removed using clean up cartridges and the samples were analyzed using normal phase HPLC with fluorescent detection. […] The labeled glycans were detected using a fluorescence detector with an excitation wavelength of 330 nm and an emission wavelength of 420 nm.
3 L scale-down model bioreactors were utilized to verify the impact of CoCl2 on the resulting protein glycosylation profiles in Cell Line 1. Cell culture process performance indicators were monitored and measured throughout the respective cultures. […]

[3] = tested on: Cell Line 2 (CHO cell line expressing DVD1); experiment: Cell Line 2 shake flask fedbatch culture: N-glycan oligosaccharide profile of DVD1
Procedure: as §1
(§4) Both cells lines were of CHO DUX-B11 origin based on a dhfr (dihydrofolate reductase) expression system. All cultures utilized the same chemically defined basal media (CDBM), and chemically-defined feed media (CDFM), except Cell Linel utilized a CDFM that was enriched at a 50% higher relative concentration. Each of the experimental conditions were supplemented with cobalt chloride (Sigma-Aldrich, St. Louis, Mo.) to evaluate its potential impact on the resulting N-glycan oligosaccharide profile. In preparation of the cultures, the cell lines were expanded through separate seed train inoculums to generate enough cell biomass for inoculation of multiple cultures. Process conditions utilized during the cultures were similar between each experimental condition and the respective non-cobalt supplemented control condition (Table 1).
Purified antibodies subjected to additional analytical characterization were purified using MabSelect™ Protein A (GE Healthcare, Piscataway, N.J.) using a low pH, step elution gradient, followed by buffer exchange using Spin Concentrator X UF columns (Corning Lifesciences, Tewksbury, Mass.), or equivalent, according to the manufacturer's recommended procedure.
Approximately 200 μg of Protein A purified samples from Cell Lines 1 and 2 were treated with N-glycanase at 37° C. for an overnight duration to remove the N-glycans from the protein. The protein was precipitated and the supernatant was taken for subsequent chemical derivatization of the reducing end of the released glycans with 2-aminobenzamide (2-AB) dye. Following the derivatization step, the excess dye was removed using clean up cartridges and the samples were analyzed using normal phase HPLC with fluorescent detection. Mobile phase A was 100% acetonitrile and mobile phase B was 50 mM ammonium formate at pH 4.4. The glycans were eluted from a polyamide column (Prozyme, Hayward, Calif.) using a shallow gradient. The labeled glycans were detected using a fluorescence detector with an excitation wavelength of 330 nm and an emission wavelength of 420 nm.

[4] = tested on: Cell Line 1 (CHO cell line expressing Antibody 1); experiment: Cell Line 1 shake flask fedbatch culture: N-glycan oligosaccharide profile of Antibody 1
Procedure: as §1
as §4, with “1). […]” for “1).”
as §3

[5] = tested on: Cell Line 1 (CHO cell line expressing Antibody 1); experiment: Cell Line 1 shake flask fedbatch culture: viable cell density and cell viability (trypan blue exclusion)
Procedure: as §1, §4
(§5) Viable cell density (VCD) and cell viability values were measured through trypan blue exclusion via Cedex automated cell counters (Roche Applied Science, Indianapolis, Ind.), glucose and lactate values were measured with a ABL-805 (Radiometer Medical, Denmark) blood gas analyzer. Offline pH, dissolved oxygen (DO), and pCO2 measurements were also performed with a ABL-805 (Radiometer Medical, Denmark) blood gas analyzer. Osmolality was measured on a Multi-Osmette 2430 osmometer (Precision Systems, Natick, Mass.).

[6] = tested on: Cell Line 2 (CHO cell line expressing DVD1); experiment: Cell Line 2 shake flask fedbatch culture: harvest titer of DVD 1 (Poros A HPLC)
Procedure: as §1, §4
(§6) Antibody titers were measured from crude cell culture harvests on a Poros A™ (Life Technologies, Carlsbad, Calif.) affinity column using an HPLC system operating with a low pH, step elution gradient with detection at 280 nm. Absolute concentrations were assigned with respect to reference standard calibration curves.

[7] = tested on: Cell Line 1 (CHO cell line expressing Antibody 1); experiment: Cell Line 1 3 L laboratory-scale bioreactor culture: cell culture performance (VCD, viability, glucose, lactate, osmolality); settings: Cell Line 1, 3 L bioreactor, 50 μM CoCl2
Procedure: as §1, §4, §5
3 L scale-down model bioreactors were utilized to verify the impact of CoCl2 on the resulting protein glycosylation profiles in Cell Line 1. Cell culture process performance indicators were monitored and measured throughout the respective cultures. Viable cell density, cell viability, harvest titer, and harvest N-glycan oligosaccharide data was measured and reported. FIG. 4 highlights the cell culture performance results observed through the use of 50 μM CoCl2 targeted supplementation into the CDBM and CDFM. Similar to the shake flask results, there was a modest drop in the viable cell density profile (FIG. 4A), but no change in the viability profile in the 50 μM CoCl2 supplemented culture (FIG. 4B). […] Similar to the shake flask results using 50 μM CoCl2, there was a nominal drop in the final harvest titer with the cobalt supplemented culture achieving a final harvest titer 10% below that of the unsupplemented control (FIG. 4F).

[8] = tested on: Cell Line 2 (CHO cell line expressing DVD1); experiment: Cell Line 2 shake flask fedbatch culture: viable cell density and cell viability (trypan blue exclusion)
Procedure: as §1, §4, §5

[9] = tested on: Cell Line 1 (CHO cell line expressing Antibody 1); experiment: Cell Line 1 shake flask fedbatch culture: harvest titer of Antibody 1 (Poros A HPLC)
Procedure: as §1, §4, §6

[10] = Cell Line 2, shake flask, 100 μM cobalt
[11] = Cell Line 2, shake flask, 1-100 μM CoCl2

[Cl-].[Cl-].[Co+2] [CoCl2, cobalt (II) chloride]
final harvest titer below that of the unsupplemented control [1]: 10% | increase in NA1F species vs unsupplemented control ([2]; Cell Line 1, 3 L bioreactor, 50 μM CoCl2): approximately 8% | maximum absolute percentage increase in galactosylated N-glycans relative to the unsupplemented control ([2]; Cell Line 1, 3 L scale bioreactors): 8% | increase in NA1F glycans vs unsupplemented control [3, 10]: 6.2% | change in relative abundance of NGA2F-GlcNAc vs unsupplemented control [3, 11]: statistically significant decreases | change in relative abundance of high mannose glycans vs unsupplemented control [3, 11]: statistically significant decreases | change in NA2F species vs unsupplemented control ([3]; Cell Line 2, shake flask, 1-100 μM CoCl2, much lower relative amount than NA1F): increased | maximum absolute percentage increase in galactosylated N-glycans relative to the unsupplemented control ([3]; Cell Line 2, shaker flask cultures): 6% | change in relative abundance of NGA2F-GlcNAc vs unsupplemented control ([4]; 1-100 μM CoCl2): statistically significant decreases | change in NA2F species vs unsupplemented control ([4]; 1-100 μM CoCl2, much lower relative amount than NA1F): increased | change in NA1F species vs unsupplemented control ([4]; concentration-dependent, 1-100 μM CoCl2): increase | concentration up to which there was a negligible impact on cell growth ([5]; Cell Line 1): 50 µM | peak VCD compared to the control ([5]; Cell Line 1, shake flask, 1, 5, and 25 μM): approximately similar | peak VCD ([5]; Cell Line 1, shake flask, cobalt 50 μM in CDBM and CDFM): approximately 9.4×10^6 cells/mL | peak VCD ([5]; Cell Line 1, shake flask, cobalt 100 μM in CDBM and CDFM): ~7.0×10^6 cells/mL | cell viability at harvest compared to the unsupplemented control ([5]; Cell Line 1, shake flask, each cobalt concentration evaluated (1-100 μM), harvest Day 14): slightly higher cell viability | concentration up to which there was a negligible impact on recombinant protein productivity ([6]; Cell Line 2): 5 µM | decrease in productivity (harvest titer of DVD 1) vs control ([6]; Cell Line 2, shake flask, 25 μM cobalt): 20% | decrease in productivity (harvest titer of DVD 1) vs control ([6]; Cell Line 2, shake flask, 50 μM cobalt): 35% | decrease in productivity (harvest titer of DVD 1) vs control [6, 10]: 47% | impact on recombinant antibody productivity (harvest titer of DVD 1) ([6]; Cell Line 2, shake flask, 1 and 5 μM cobalt): negligible impact | glucose levels in the culture media vs unsupplemented control over time [7]: approximately similar | higher lactate concentration in culture media vs unsupplemented control [7]: ≤ 0.5 g/L | osmolality levels vs unsupplemented control [7]: slightly elevated | viability profile vs unsupplemented control [7]: no change | viable cell density profile vs unsupplemented control [7]: modest drop | concentration up to which there was a negligible impact on cell growth ([8]; Cell Line 2): 25 µM | peak VCD compared to the control ([8]; Cell Line 2, shake flask, 1, 5, and 25 μM): approximately similar | peak VCD ([8]; Cell Line 2, shake flask, cobalt 50 μM in CDBM and CDFM): approximately 10.6×10^6 cells/mL | peak VCD ([8]; Cell Line 2, shake flask, cobalt 100 μM in CDBM and CDFM): ~6.7×10^6 cells/mL | cell viability over time and at harvest ([8]; Cell Line 2, shake flask, higher cobalt media concentrations, after Day 6): higher cell viability | concentration up to which there was a negligible impact on recombinant protein productivity ([9]; Cell Line 1): 50 µM | drop in productivity (harvest titer of Antibody 1) vs control ([9]; Cell Line 1, shake flask, 100 μM cobalt): 21% | impact on recombinant antibody productivity (harvest titer of Antibody 1) ([9]; Cell Line 1, shake flask, 1, 5, 25, and 50 μM cobalt): negligible impact
